# Experimental data reported in US20230107216A1, “PANTETHEINE DERIVATIVES AND USES THEREOF” (Comet Therapeutics, Inc., priority 2018, published 2023).
# Like-named read-outs stand apart in the source and are kept apart here.
# How the values were obtained:
# [1] = test system: Subnormal activation of pyruvate dehydrogenase complex (PDH) primary fibroblasts GM01503; experiment: NADP+/NADPH (NADP/NADPH-Glo), PDH fibroblasts GM01503; type: cell-based; conditions: Homo sapiens, Fibroblast, PDH GM01503 P10, assay condition A (10 mM glucose, 2 mM L-glutamine, 1 mM pyruvate, 10% FBS), 24h, read-out: Increase in Total NADP+ + NADPH
# Method: (§1) Primary adherent fibroblasts were cultured in minimum essential medium (MEM) (Gibco, 25030081) supplemented with 2 mM L-Glutamine (Gibco, 25030081), 15% fetal bovine serum (FBS) (Gibco, 26400044) and 1% penicillin/streptomycin (Gibco, 5140122) at 37° C. and 5% CO2. Cells were collected for either passaging or experiment at ˜70-80% confluence. Cells were obtained by trypsinization and seeded in cell culture microplates either white plate (Thermo Fisher Scientific, 152028) for luminescent measurement or black plate (Thermo Fisher Scientific, 165305) for fluorescent based read out for different assays listed below. Cells were obtained by trypsinization and […] were seeded and allowed to adhere for 16-18 hours to have confluency around 70-80% in the cell well with culture media. After 24 hours prior to measurements (37° C., 5% CO2) media was changed to Dulbecco's Modified Eagle Medium (DMEM, Agilent Seahorse cat #103575-100) with the appropriate supplements as stated below.
# (§2) Primary fibroblasts assayed were Propionic Acidemia (PA) (GM03590 Coriell Institute for Medical Research, Tsi 6337 Trans-Hit Bio), Methylmalonic Acidemia (MMA) (Tsi 5224 Trans-Hit Bio), Subnormal activation of pyruvate dehydrogenase complex (PDH) (GM01503 Coriell Institute for Medical Research), Very long-chain acyl-CoA dehydrogenase (VLCAD) (GM17475), Leigh Syndrome (LS) (GM03672, GM13411 Coriell Institute for Medical Research), Pyruvate Carboxylase Deficiency (PC) (GM00444 Coriell Institute for Medical Research). 10 μM of Compounds were added for 2 hours in PA, MMA lines and for 24h for the other fibroblast lines.
# Assay was performed according to manufacturer instructions (NADP+/NADPH-Glo Assay Promega, G9082). Assay required a plate for total measurement of NADP+/NADPH and a plate for individual measurement of NADP+ or NADPH. For every assay a 12-point standard curve is prepared ranging from 400 nM to 0.625 nM. Media is removed and replaced with 50 μl of PBS for both assays.
# For individual NADP+/NADPH measurements, 50 μl of 1% DTAB (Sigma, D5047) (cell lysis reagent) in 0.2N NaOH was added to the plates and 100 μl of lysate was split into two plates with 50 μl each from which ratio of NADP/NADPH can be calculated. 25 μl of 0.4N HCl were added to the NADP+ plates and both NADP+ and NADPH plates were heated at 60° C. for 15 minutes. The acid and heat treatment destroyed NADPH allowing individual NADP+ measurements while heating in basic conditions destroys NADP+ allowing individual NADPH measurement. After 15 minutes plates were allowed to come to room temperature and Trizma base (Sigma, T1699) was added to the NADP+ plates to neutralize the acid and HCl Trizma hydrochloride (Sigma, T2694) was added to the NADPH plates. The NADNADPH glo reagent was prepared by adding 125 μl of NAD cycling substrate, 125 μl of reductase, 125 μl of reductase substrate, 125 μl NAD cycling enzyme to a total of the 25 ml of NAD GLO reagent. 1:1 ratio of total volume of reagent was added to the individual NADP+, NADPH measurements (total 100 μl) and 50 μl were added for the total NAD/NADPH measurements. Luminescence was measured for 30-60 minutes within the linear range.
# (§3) A total dead cell count was performed as described in Example 817 and only alive cells were used for analysis.
# [2] = test system: Subnormal activation of pyruvate dehydrogenase complex (PDH) primary fibroblasts GM01503 (GM1503A); experiment: Total NAD+ + NADH and NAD+ (NAD/NADH-Glo), PDH fibroblasts GM01503; type: cell-based; conditions: Homo sapiens, Fibroblast, 24h, read-out: Increase in Total NAD+ + NADH
# Method: as §1, §2
# Assay was performed according to manufacturer instructions (NAD/NADH-Glo Assay Promega, G9072). The NAD/NADH-Glo Assay is a bioluminescent assay for detecting total oxidized and reduced nicotinamide adenine dinucleotides (NAD+ and NADH, respectively) from which ratio of NAD/NADH can be calculated. Briefly, for every assay a 12-point standard curve was prepared ranging from 400 nM to 0.625 nM. Media was removed and replaced with 50 μl of PBS for both assays.
# For individual NAD+ and NADH measurement, 50 μl of 1% DTAB (Sigma Cat #D5047) (cell lysis reagent) in 0.2N NaOH was added to the plate and a total 100 μl of lysate was split into two plates with 50 μl each. 25 μl of 0.4N HCl were added to the NAD+ plate and both NAD+ and NADH plate were heated at 60° C. for 15 minutes. The acid and heat treatment destroyed NADH allowing individual NAD+ measurement while heating in basic conditions destroys NAD+ allowed individual NADH measurements. The plates were allowed to come to room temperature for 10 minutes and Trizma base (Sigma, T1699) was added to the NAD+ plate to neutralize the acid and HCl Trizma hydrochloride (Sigma, T2694) was added to the NADH plate. The NADNADH glo reagent was prepared by adding: 625 μl of NAD cycling substrate, 125 μl of reductase, 125 μl of reductase substrate, 125 μl NAD cycling enzyme to total of the 25 ml of NAD GLO reagent. 1:1 ratio of total volume of reagent was added to the individual NAD+, NADH measurement (total 100 μl) and 50 μl for total NAD/NAH measurement. Luminescence was read between 30-60 minutes within the linear range.
# as §3
# [3] = PDH GM1503A P10, assay condition A
# [4] = PDH GM1503A P10, assay condition B
structure (smiles),measurement,setting,value
"C[C@@H](O)CC(=O)CC(=O)SCCNC(=O)CCNC(=O)[C@H](O)C(C)(C)CO [Compound 42, (2R)-2,4-dihydroxy-N-[2-[(2-[[(5R)-5-hydroxy-3-oxohexanoyl]sulfanyl]ethyl)carbamoyl]ethyl]-3,3-dimethylbutanamide]",activation at 10 µM,[1],≥ 10%
"CC(O)C(C(=O)SCCNC(=O)CCNC(=O)[C@H](O)C(C)(C)CO)C(C)O (stereo partly drawn) [Compound 1285, (2R)-2,4-dihydroxy-N-[2-[(2-[[3-hydroxy-2-(1-hydroxyethyl)butanoyl]sulfanyl]ethyl)carbamoyl]ethyl]-3,3-dimethylbutanamide]",activation at 10 µM,[2]; [3],≥ 10%
same,activation at 10 µM,[1],≥ 10%
"C[C@H](O)CC(=O)CC(=O)SCCNC(=O)CCNC(=O)[C@H](O)C(C)(C)CO [Compound 1306, (2R)-2,4-dihydroxy-N-[2-[(2-[[(5S)-5-hydroxy-3-oxohexanoyl]sulfanyl]ethyl)carbamoyl]ethyl]-3,3-dimethylbutanamide]",activation at 10 µM,[2]; [4],≥ 10%
same,activation at 10 µM,[1],≥ 10%
"CCC(=O)CC(=O)SCCNC(=O)CCNC(=O)[C@H](O)C(C)(C)CO [Compound 382, (2R)-2,4-dihydroxy-3,3-dimethyl-N-[2-([2-[(3-oxopentanoyl)sulfanyl]ethyl]carbamoyl)ethyl]butanamide]",activation at 10 µM,[2]; [3],≥ 10%
same,activation at 10 µM,[1],≥ 10%
"CC(=O)OCC(C)(C)[C@@H](OC(C)=O)C(=O)NCCC(=O)NCCSC(C)=O [Compound 1264, (1R)-3-(acetyloxy)-1-[(2-[[2-(acetylsulfanyl)ethyl]carbamoyl]ethyl)carbamoyl]-2,2-dimethylpropyl acetate]",activation at 10 µM,[2]; [3],≥ 10%
same,activation at 10 µM,[1],≥ 10%
COC(=O)CC(C(C)=O)C(=O)SCCNC(=O)CCNC(=O)[C@H](O)C(C)(C)CO (stereo partly drawn) [Compound 410],activation at 10 µM,[1],≥ 10%
"CC(=O)SCCNC(=O)CCNC(=O)[C@H](O)C(C)(C)COC(=O)[C@H](C)N [Compound 502, (3R)-3-[(2-[[2-(acetylsulfanyl)ethyl]carbamoyl]ethyl)carbamoyl]-3-hydroxy-2,2-dimethylpropyl (2S)-2-aminopropanoate]",activation at 10 µM,[2]; [4],≥ 10%
same,activation at 10 µM,[1],≥ 10%
"C[C@@H](O)CC(=O)SCCNC(=O)CCNC(=O)[C@H](O)C(C)(C)CO [Compound 38, S-2-{3-[(R)-2,4-dihydroxy-3,3-dimethylbutyrylamino]propionylamino} ethyl (R)-3-hydroxybutanethioate]",activation at 10 µM,[1],≥ 10%
"CC(C)(CO)[C@@H](O)C(=O)NCCC(=O)NCCSC(=O)CCCO [Compound 1304, (2R)-2,4-dihydroxy-N-[2-([2-[(4-hydroxybutanoyl)sulfanyl]ethyl]carbamoyl)ethyl]-3,3-dimethylbutanamide]",activation at 10 µM,[2]; [4],≥ 10%
same,activation at 10 µM,[1],≥ 10%
"CC(=O)SCCNC(=O)CCNC(=O)[C@H](O)C(C)(C)COC(=O)CN [Compound 560, (3R)-3-[(2-[[2-(acetylsulfanyl)ethyl]carbamoyl]ethyl)carbamoyl]-3-hydroxy-2,2-dimethylpropyl 2-aminoacetate]",activation at 10 µM,[2]; [3],≥ 10%
"CC(=O)OCC(C)(C)[C@@H](O)C(=O)NCCC(=O)NCCSC(=O)CC(=O)CCC(=O)O [Compound 140, 6-[(2-[3-[(2R)-4-(acetyloxy)-2-hydroxy-3,3-dimethylbutanamido]propanamido]ethyl)sulfanyl]-4,6-dioxohexanoic acid]",activation at 10 µM,[2]; [3],≥ 10%
same,activation at 10 µM,[1],≥ 10%
